Measured values from patent US6448392B1, “Lipid derivatives of antiviral nucleosides: liposomal incorporation and method of use” (Chimerix, Inc., priority 1985, dated 2002).
“And” between values parts separate entries of the source, which are not always exact repeats. Identical values can stand only once. Counter-ions that a name gives are not always drawn. Like-named read-outs stand apart in the source and are kept apart here.

Columns and labels:
HIV (LAV-1 strain) = type: cell-based; details: for EC50: CEM wild type; for inhibition of HIV p24 production: Experiment H747-1b, CEM cells
Protocol: 6.42 micromoles of dioleoylphosphatidylcholine, 3.85 micromoles of cholesterol, 1.28 micromoles of dioleoylphosphatidylglycerol and 1.28 micromoles of dimyristoylphosphatidyl-azidothymidine were mixed in a sterile 2.0 ml glass vial and the solvent was removed in vacuo in a rotary evaporator. In some experiments, dimyristoylphosphatidylazidothymidine was replaced with either dimyristoylphosphatidyldideoxythymidine, dimyristoylphosphatidyldideoxycytidine or azidothymidine diphosphate dimyristoylglycerol; control liposomes were prepared by omitting the antiviral liponucleotide. The dried film was placed under high vacuum overnight at room temperature to remove traces of solvent. The lipid film was hydrated at 30° C. with 0.3 ml of sterile 10 mM sodium acetate buffer (pH 5.0) containing isotonic dextrose and the ampule was sealed. The mixture was vortexed intermittently for 10 minutes followed by sonication using a Heat Systems Ultrasonics sonicator with a cup horn generator (431B) at output control setting #9 for 90 to 120 minutes at which time the sample is clarified. This sonicated preparation was diluted with sterile RPMI buffer and added to the tissue culture wells at the concentration indicated.
(§1) The human T lymphoblastoid cell line, CCRG-CEM (hereafter referred to as CEM), was grown in RPMI 1640 medium containing 100 U/ml penicillin G, 100 ug/ml streptomycin, 2 mM glutamine and 10% fetal bovine serum (Hyclone Laboratories, Logan, Utah). Cells were infected with the LAV-1 strain (L. Montagnier, Paris, France) at a multiplicity of infection of one tissue culture 50% infectious dose (TCID50)/cell for 60 minutes at 37° C. in medium containing […]. CEM cells were infected in suspension at 6×10^4 cells/ml, washed three times by centrifugation and resuspension and then distributed in 96-well plates at 6×10^4 cells/well before addition of medium containing the liposomal antiretroviral liponucleotide drugs.
(§2) Antiviral activity was assayed after 3 days by the inhibition of the production of HIV p24 (gag) antigen in the cell free culture medium of the infected cells exposed to different concentrations of drug; p24 antigen was measured by ELISA (Abbott Laboratories, Chicago, Ill.) according to the manufacturer's instructions. The data are the average of two determinations and are expressed as percentage of a control incubated in the absence of drugs.

HIV in CEM tk- cells = assay: Inhibition of HIV p24 production in thymidine kinase deficient CEM tk- cells; type: cell-based; details: Experiment H637-1b, AZT 0.2 to 100 uM
Protocol: as §1, §2
In this experiment, CEM cells were replaced with mutant cells (provided by Dr. Dennis Carson, Scripps Clinic, San Diego, Calif.) which lack the thymidine kinase enzyme (CEM tk−).

HSV-1 = assay: Herpes simplex virus plaque reduction assay, HSV-1 in Wi-38 cells; type: cell-based, Herpes simplex virus type 1; details: for IC50: HSV-1 infected Wi-38 cells, plaque reduction, read-out: concentration which produces 50% inhibition
Protocol: Wi-38 cells were obtained from American Type Culture Collection (Rockville, Md. 20852) and grown in Dulbecco's minimum essential medium (DMEM) with 10% fetal calf serum (FCS). The cells were grown in 250 cm square bottles until reaching confluence.
Herpes simplex virus (HSV) type 1 (HSV-1) and type 2 (HSV-2) were obtained from the American Type Culture Collection. Both virus stocks were prepared in Wi-38 cells; extensive cytopathic effects (CPD) were observed when the stock virus was harvested by a single freezing and thawing and the cell debris was clarified by low speed centrifugation (2000 rpm). Supernatant fluids containing the virus were aliquoted into small vials and stored at −80° C. Both HSV-1 and HSV-2 stocks were titered in Wi-38 cells before use in the experiments.
The plaque reduction assay was used to measure the antiviral effect of phosphatidylacyclovir or free ACV. Wi-38 cells were trypsinized with 0.25% trypsin for 5 min. The cells were harvested and centrifuged to remove residual trypsin and the cell pellet was resuspended in DMEM with 10% FCS. The Wi-38 cells were plated in a 96 well plate ([…] cells/well) for one hour. The infected cells were then treated with phosphatidylacyclovir or ACV. The antiviral agents were prepared in stock solutions which were then diluted two-fold with 2% FBS in DMEM containing 0.5% methylcellulose. 100 μl of each diluted antiviral agent was added into each well of HSV infected cells.
The control and drug-treated cell cultures were incubated in a 37° C. incubator with 5% carbon dioxide for 24 hours. […] The dye was rinsed off with tap water and the plate was dried and plaques were counted. The antiviral effect of ACV or phosphatidylacyclovir was determined by measurement of plaque reduction as shown in the example below.

HIV (LAV-1) = assay: HIV plaque formation in HT4-6C cells (CD4+ HeLa cells) infected with LAV-1; type: cell-based
Protocol: In this experiment the compound of Example 7 (1-O- stearoylglycero-rac-3-phospho-5′-(3′-deoxy, 3′-azido)thymidine) was incorporated into liposomes containing 10 mole percent of the liponucleotide as indicated in Example 8. This material was diluted with RPMI medium to the desired concentration and added to HT4-6C cells (CD4+ HeLa cells) obtained from Dr. Bruce Chesbro of the Rocky Mountain National Laboratories (Hamilton, Mont.) which had been infected with LAV-1 as noted earlier in this example. After a 3 day incubation at 37° C., the cells were washed with PBS, fixed and stained with crystal violet and the plaques were counted.
PalmitoylAZT was incorporated into liposomes as noted in Example 8 and incubated with LAV-1 infected HT4-6C cells as noted in Examples 10 and 11. 0.8 uM palmitoylAZT inhibited plaque formation by 25% (134 plaques versus 176 in the untreated control).

[1] = test system: HIV in CEM (wild type) cells; assay: Experiment I276: antiviral protection of CEM cells by preincubation, p24 in supernates; type: cell-based; details: 3 day preincubation; 24 and 48 hours in normal media after removal of drug
Protocol: The cells were then washed twice with PBS, and fresh RPMI media added. Each group of cells was then divided into three batches. One batch was immediately infected with HIV, as noted above; after washing away unattached HIV, the sample was allowed to incubate in media alone for 3 days. Two other batches were allowed to incubate in media alone for either 24 or 48 hours to allow any intracellular antiviral agent present to become depleted. Then they were infected with HIV, the cells washed free of virus, and fresh RPMI media added. After 3 days of further incubation, the supernates of all batches were tested for the presence of p24 protein.
CEM cells were subjected to HIV infection without preincubation; drug was added following HIV infection as indicated, and the cells were incubated for 3 days.
After a further incubation for 3 days, p24 was measured.

[2] = Experiment H533-1, liposomes containing 10 mole percent liponucleotide, p24 after 3 days, read-out: amount of drug required to reduce virus production by 50% (E.D. 50)
[3] = Experiment H805-1, liposomes, p24, read-out: ED50 (the source's name)
[4] = 10 uM liponucleotide in liposomes, 3 day incubation

## CCCCCCCCCCCCCC(=O)OC[C@@H](COP(=O)(O)OC[C@@H]1CC[C@H](n2cc(C)c(=O)[nH]c2=O)O1)OC(=O)CCCCCCCCCCCCC [LN2, 1,2-Dimyristoylglycerophospho-5′-(3′-deoxy)thymidine, Monosodium Salt]
HIV (LAV-1 strain); [2]
  EC50: 30000 nM
HIV (LAV-1 strain)
  inhibition of HIV p24 production: somewhat more effective than the free nucleoside
HIV (LAV-1 strain); [3]
  EC50: 20000 nM
HIV in CEM tk- cells
  effect on p24 production: capable of reducing p24 production

## Cc1cn([C@H]2CC[C@@H](CO)O2)c(=O)[nH]c1=O [Example N2, 2′,3′-dideoxythymidine, reference compound]
HIV (LAV-1 strain)
  inhibition of HIV p24 production: weak inhibitor of HIV p24 production

## CCCCCCCCCCCCCC(=O)OCC(COP(=O)(O)OCCOCn1cnc2c(=O)[nH]c(N)nc21)OC(=O)CCCCCCCCCCCCC (stereo in doubt) [PhosphatidylACV, dimyristoylphosphatidylacycloguanosine]
HSV-1
  IC50: 2000 nM
HSV-1; PhosphatidylACV 0.84 uM
  % no Drug: 91%
  plaques (determinations 1 and 2): 24 and 26
  plaques, mean: 25
HSV-1; PhosphatidylACV 1.67 uM
  % no Drug: 67%
  plaques (determinations 1 and 2): 17 and 20
  plaques, mean: 18.5
HSV-1; PhosphatidylACV 3.3 uM
  % no Drug: 40%
  plaques (determinations 1 and 2): 10 and 12
  plaques, mean: 11
HSV-1; PhosphatidylACV 6.7 uM
  % no Drug: 27%
  plaques (determinations 1 and 2): 6 and 9
  plaques, mean: 7.5
HSV-1; PhosphatidylACV 13.4 uM
  % no Drug: 18%
  plaques (determinations 1 and 2): 4 and 6
  plaques, mean: 5
HSV-1; PhosphatidylACV 27 uM
  % no Drug: 9%
  plaques (determinations 1 and 2): 2 and 3
  plaques, mean: 2.5
HSV-1; PhosphatidylACV 54 uM
  % no Drug: 0%
  plaques (determinations 1 and 2): 0
  plaques, mean: 0
HSV-1; PhosphatidylACV 107 uM
  % no Drug: 0%
  plaques (determinations 1 and 2): 0
  plaques, mean: 0

## Nc1nc2c(ncn2COCCO)c(=O)[nH]1 [Acyclovir, Acycloguanosine, reference compound]
HSV-1; Acyclovir 0.155 uM
  % no Drug: 73%
  plaques (determinations 1 and 2): 18 and 22
  plaques, mean: 20
HSV-1; Acyclovir 0.31 uM
  % no Drug: 65%
  plaques (determinations 1 and 2): 17 and 19
  plaques, mean: 20
HSV-1; Acyclovir 0.625 uM
  % no Drug: 26%
  plaques (determinations 1 and 2): 8 and 6
  plaques, mean: 7
HSV-1; Acyclovir 1.25 uM
  % no Drug: 13%
  plaques (determinations 1 and 2): 4 and 3
  plaques, mean: 3.5
HSV-1; Acyclovir 2.5 uM
  % no Drug: 0%
  plaques (determinations 1 and 2): 0
  plaques, mean: 0
HSV-1; Acyclovir 5 uM
  % no Drug: 0%
  plaques (determinations 1 and 2): 0
  plaques, mean: 0
HSV-1; Acyclovir 10 uM
  % no Drug: 0%
  plaques (determinations 1 and 2): 0
  plaques, mean: 0
HSV-1; Human alphaherpesvirus 1
  IC50: 400 nM

## CCCCCCCCCCCCCCCCCC(=O)OCC(O)COP(=O)(O)OC[C@H]1O[C@@H](n2cc(C)c(=O)[nH]c2=O)C[C@@H]1N=[N+]=[N-] (mixture of isomers) [Example 7, 1-O-stearoylglycero-rac-3-phospho-5′-(3′-azido-3′-deoxy)thymidine]
HIV (LAV-1); 0.0316 uM
  % of Untreated Control: 78%
  Plaques, Average: 43
HIV (LAV-1); 0.100 uM
  % of Untreated Control: 71%
  Plaques, Average: 39
HIV (LAV-1); 0.316 uM
  % of Untreated Control: 58%
  Plaques, Average: 32
HIV (LAV-1); 1.0 uM
  % of Untreated Control: 29%
  Plaques, Average: 16
HIV (LAV-1); 3.16 uM
  % of Untreated Control: 13%
  Plaques, Average: 7
HIV (LAV-1); [4]
  % of Untreated Control: 2%
  Plaques, Average: 1
HIV (LAV-1); HT4-6C cells infected with LAV-1, liposomes, read-out: concentration required to produce 50% inhibition of HIV plaque formation
  IC50: ~350 nM

## CCCCCCCCCCCCCC(=O)OCC(COP(=O)(O)OP(=O)(O)OCC1OC(n2cc(C)c(=O)[nH]c2=O)CC1N=[N+]=[N-])OC(=O)CCCCCCCCCCCCC (stereo not shown) [LN4, azidothymidine diphosphate dimylristoylglycerol]
HIV (LAV-1 strain); [2]
  EC50: 8000 nM

## CCCCCCCCCCCCCC(=O)OCC(COP(=O)(O)OCC1CCC(n2ccc(N)nc2=O)O1)OC(=O)CCCCCCCCCCCCC (stereo not shown) [LN3, 1,2-dimyristoylglycerophospho-5′-(3′-dideoxy)cytidine]
HIV (LAV-1 strain); [3]
  EC50: 1100 nM

## CCCCCCCCCCCCCC(=O)OC[C@H](COP(=O)(O)OC[C@H]1O[C@@H](n2cc(C)c(=O)[nH]c2=O)C[C@@H]1N=[N+]=[N-])OC(=O)CCCCCCCCCCCCC [LN1, 1,2-Dimyristoylglycerophospho-5′-(3′-azido-3′-deoxy)thymidine, Monosodium Salt]
HIV (LAV-1 strain); [2]
  EC50: 2000 nM
HIV (LAV-1 strain); Experiment H747-1a, concentrations ranging from 2 to 170 uM
  effectiveness in reducing p24, phosphatidylAZT liposomes versus free AZT: more effective than the free AZT
HIV in CEM tk- cells
  effect on p24 production: capable of reducing p24 production
[1]
  protection from HIV after removal of the drug: complete protection from HIV replication

## Cc1cn([C@H]2C[C@H](N=[N+]=[N-])[C@@H](CO)O2)c(=O)[nH]c1=O [Example N1, 3′-azido-3′-deoxythymidine, reference compound]
HIV (LAV-1 strain); Experiment H747-1a, low concentrations below 0.1 uM
  effectiveness in reducing p24, free AZT versus liponucleotide: more effective than the liponucleotide
HIV in CEM tk- cells
  effect on p24 production: completely without effect
[1]
  protection from HIV after removal of the drug: failed to protect the cells from HIV infection

## CCCCCCCCCCCCCCCC(=O)OC[C@H]1O[C@@H](n2cc(C)c(=O)[nH]c2=O)C[C@@H]1N=[N+]=[N-] [PalmitoylAZT, 5′-palmitoyl(3′-deoxy-3′-azido)thymidine]
HIV (LAV-1); 0.8 uM in liposomes, 176 in the untreated control
  plaques: 134
HIV (LAV-1); 0.8 uM in liposomes, LAV-1 infected HT4-6C cells
  inhibition of plaque formation: 25%
